18 compounds from patent US4177269A, “Novel 17-esters of 17α-hydroxy gestogens, compositions containing such compounds, processes for their preparation and methods of treatment therewith” (Aktiebolaget Leo, priority 1976, dated 1979) can be followed below.

The test system of one assay is Hepatome AH 130. In words: Hepatome AH 130 tumour growth inhibition in rats. Format: in vivo, Sprague-Dawley rats. As to conditions: one i.p. injection, result in words. From the text:
LD50 is the dose that causes a 50 percent lethality of the animals, and ED50 is the dose that causes a 50 percent reduction of tumour size.
(§1) The experimental design and the interpretation of the results are in accordance with the standards set by the CCNSC (Cancer Chemotherpy Reports, January 1959 and December 1962).
Experimental animals: Sprague-Dawley rats.
Tumour implant: 5 × 10^6 tumour cells i.p.
(§2) Therapy: One injection i.p. on the day following implanta-
(§3) Termination: The animals are killed on the 8th day.
Evaluation: Weights of tumours of test animals are compared
with those of control animals.
For the compound `C=C1C[C@H]2[C@@H]3C=C(Cl)C4=CC(=O)CC[C@]4(C)[C@H]3CC[C@]2(C)[C@@]1(OC(=O)COC(=O)Nc1ccc(N(CCCl)CCCl)cc1OC)C(C)=O` [5:2, 6-chloro-17α-/4-(N,N-bis(2-chloroethyl)amino)-2-methoxyphenylcarbamoyloxyacetoxy/-16-methylenepregna-4,6-diene-3,20-dione], the antitumour activity result is on record as “exhibit antitumour activity”.
In the case of `CC(=O)[C@@]1(OC(=O)COC(=O)Oc2ccc(N(CCCl)CCCl)cc2)[C@H](C)C[C@H]2[C@@H]3C=C(Cl)C4=CC(=O)CC[C@]4(C)[C@H]3CC[C@@]21C` [5:3, 6-chloro-17α-/4-(N,N-bis(2-chloroethyl)amino)phenoxycarbonyloxyacetoxy/-16α-methylpregna-4,6-diene-3,20-dione], the antitumour activity result was “exhibit antitumour activity”.
Take `CC(=O)N[C@@H](Cc1ccc(N(CCCl)CCCl)cc1)C(=O)OCCCC(=O)O[C@]1(C(C)=O)CC[C@H]2[C@@H]3CCC4=CC(=O)CC[C@]4(C)[C@H]3CC[C@@]21C` [3:15, 17-[4-((2S)-2-acetamido-3-(4-(N,N-bis(2-chloroethyl)amino)phenyl)propanoyloxy)butanoyloxy]pregn-4-ene-3,20-dione]: the antitumour activity entry is “exhibit antitumour activity”.
The same measure, in the same setting: the same measure for `CC(=O)[C@@]1(OC(=O)CCCNC(=O)c2ccc(C)c(N(CCCl)CCCl)c2)CC[C@H]2[C@@H]3CCC4=CC(=O)CC[C@]4(C)[C@H]3CC[C@@]21C` [6:4]: “exhibit antitumour activity”; for `CC(=O)[C@@]1(OC(=O)COC(=O)[C@@H](N)Cc2ccccc2N(CCCl)CCCl)CC[C@H]2[C@@H]3CCC4=CC(=O)CC[C@]4(C)[C@H]3CC[C@@]21C` [3:20, 17-[(2S)-2-amino-3-(2-(N,N-bis(2-chloroethyl)amino)phenyl)propanoyloxyacetoxy]pregn-4-ene-3,20-dione]: “exhibit antitumour activity”; for `CC(=O)[C@@]1(OC(=O)COC(=O)Oc2ccc(N(CCCl)CCCl)cc2)CC[C@H]2[C@@H]3CCC4=CC(=O)CC[C@]4(C)[C@H]3CC[C@@]21C` [5:4, 17α-[4-(N,N-bis(2-chloroethyl)amino)phenoxycarbonyloxyacetoxy]pregn-4-ene-3,20-dione]: “exhibit antitumour activity”.
Still for that read-out and setting: the same measure for `CC(=O)[C@@]1(OC(=O)CNC(=O)c2ccc(C)c(N(CC(C)Cl)CC(C)Cl)c2)CC[C@H]2[C@@H]3C[C@H](C)C4=CC(=O)CC[C@]4(C)[C@H]3CC[C@@]21C` (stereo partly drawn) [4:2, 17α-/3-(N,N-bis(2-chloropropyl)amino)-4-methylbenzoylaminoacetoxy/-6α-methylpregn-4-ene-3,20-dione]: “exhibit antitumour activity”; for `CC(=O)[C@@]1(OC(=O)COC(=O)CCOc2ccc(N(CCCl)CCCl)cc2)CC[C@H]2[C@@H]3CCC4=CC(=O)CC[C@]4(C)[C@H]3CC[C@@]21C` [3:26, 17α-[3-(4-(N,N-bis(2-chloroethyl)amino)phenoxy)propionyloxyacetoxy]pregn-4-ene-3,20-dione]: “exhibit antitumour activity”; for `CC(=O)[C@@]1(OC(=O)COC(=O)c2ccc(Cl)c(N(CCCl)CCCl)c2)CC[C@H]2[C@@H]3C[C@H](F)C4=CC(=O)CC[C@]4(C)[C@H]3CC[C@@]21C` [3:25, 17α-[4-chloro-3-(N,N-bis(2-chloroethyl)amino)benzoyloxyacetoxy]-6α-fluoropregn-4-ene-3,20-dione]: “exhibit antitumour activity”.
On the same count and under the same terms, the same measure for `CC(=O)[C@@]1(OC(=O)CCCOC(=O)[C@@H](N)Cc2ccc(N(CCCl)CCCl)cc2)CC[C@H]2[C@@H]3CCC4=CC(=O)CC[C@]4(C)[C@H]3CC[C@@]21C` [3:13, 17-[4-((2S)-2-amino-3-(4-(N,N-bis(2-chloroethyl)amino)phenyl)propanoyloxy)butanoyloxy]pregn-4-ene-3,20-dione]: “exhibit antitumour activity”.
As for `CC(=O)[C@@]1(OC(=O)COC(=O)Cc2ccc(N(CCCl)CCCl)cc2)CC[C@H]2[C@@H]3C=C(C)C4=CC(=O)CC[C@]4(C)[C@H]3CC[C@@]21C` [3:17, 17α-[4-(N,N-bis(2-chloroethyl)amino)phenylacetoxyacetoxy]-6-methylpregna-4,6-diene-3,20-dione], the antitumour activity result was “exhibit antitumour activity”.
The same measure, in the same setting: the same measure for `CC(=O)[C@@]1(OC(=O)CCCOC(=O)CCCc2ccc(N(CCCl)CCCl)cc2)CC[C@H]2[C@@H]3C=C(Cl)C4=CC(=O)[C@@H]5C[C@@H]5[C@]4(C)[C@H]3CC[C@@]21C` [3:24, 6-chloro-17α-[4-(4-(4-(N,N-bis(2-chloroethyl)amino)phenyl)butanoyloxy)butanoyloxy]-1α,2α-methylenepregna-4,6-diene-3,20-dione]: “exhibit antitumour activity”.
The same measure, in the same setting: the same measure for `CC(=O)[C@@]1(OC(=O)C(C)OC(=O)CCCCc2ccc(N(CCCl)CCCl)cc2)CC[C@H]2[C@@H]3C=C(Cl)C4=CC(=O)CC[C@]4(C)[C@H]3CC[C@@]21C` (stereo partly drawn) [3:8, 6-chloro-17α-/2-(5-(4-(N,N-bis(2-chloroethyl)amino)phenyl)pentanoyloxy)propanoyloxy/pregna-4,6-diene-3,20-dione]: “exhibit antitumour activity”.
Still for that read-out and setting: the same measure for `CC(=O)[C@@]1(OC(=O)CCCNC(=O)C(C)(C)c2ccc(N(CCCl)CCCl)cc2)CC[C@H]2[C@@H]3CCC4=CC(=O)CC[C@@H]4[C@H]3CC[C@@]21C` [6:2, 17α-/4-(2-(4-(N,N-bis(2-chloroethyl)amino)phenyl)-2-methylpropanoylamino)butyanoyloxy/-19-norpregn-4-ene-3,20-dione]: “exhibit antitumour activity”.
Take `CC(=O)[C@@]1(OC(=O)CCCOC(=O)c2ccc(C)c(N(CCCl)CCCl)c2)CC[C@H]2[C@@H]3C=C(C)C4=CC(=O)CC[C@]4(C)[C@H]3CC[C@@]21C` [3:23, 17α-[4-(3-(N,N-bis(2-chloroethyl)amino)-4-methylbenzoyloxy)butanoyloxy]-6-methylpregna-4,6-diene-3,20-dione]: the antitumour activity result is recorded as “exhibit antitumour activity”.
As to `CC(=O)[C@@]1(OC(=O)COC(=O)[C@@H](N)Cc2cccc(N(CCCl)CCCl)c2)CC[C@H]2[C@@H]3CCC4=CC(=O)CC[C@]4(C)[C@H]3CC[C@@]21C` [3:19, 17-[(2S)-2-amino-3-(3-(N,N-bis(2-chloroethyl)amino)phenyl)propanoyloxyacetoxy]pregn-4-ene-3,20-dione], the antitumour activity entry is on record as “exhibit antitumour activity”.
`CC(=O)[C@@]1(OC(=O)CCCCNC(=O)c2ccc(C)c(N(CCBr)CCBr)c2)CC[C@H]2[C@@H]3C[C@H](F)C4=CC(=O)CC[C@]4(C)[C@H]3CC[C@@]21C` [6:3, 17α-/5-(3-(N,N-bis(2-bromoethyl)amino)-4-methylbenzoylamino)pentanoyloxy/-6α-fluoropregn-4-ene-3,20-dione]: the antitumour activity result is reported as “exhibit antitumour activity”.
The same measure, in the same setting: the same measure for `CC(=O)[C@@]1(OC(=O)CCCCOC(=O)C(N)Cc2ccc(N(CCCl)CCCl)cc2)CC[C@H]2[C@@H]3C[C@H](F)C4=CC(=O)CC[C@]4(C)[C@H]3CC[C@@]21C` (stereo partly drawn) [3:10, 17α-/5-(2-amino-3-(4-(N,N-bis(2-chloroethyl)amino)phenyl)propanoyloxy)pentanoyloxy/-6α-fluoropregn-4-ene-3,20-dione]: “exhibit antitumour activity”.

The test system of a further assay is Ehrlich ascites tumour, ELD hyperdiploid. In words: Ehrlich ascites tumour, ELD hyperdiploid (46 chromosomes), growth inhibition in mice. The format is in vivo, SPF NMRI mice. The settings on record: one i.p. injection, result in words.
From the text: as §1
Ehrlich ascites tumour, ELD hyperdiploid
Experimental animals: SPF NMRI mice.
Tumour implant: 2 × 10^6 tumour cells i.p.
as §2, §3
Evaluation: Weight of tumours of test animals compared with
those of control animals.
For `CC(=O)[C@@]1(OC(=O)CCCNC(=O)c2ccc(C)c(N(CCCl)CCCl)c2)CC[C@H]2[C@@H]3CCC4=CC(=O)CC[C@]4(C)[C@H]3CC[C@@]21C` [6:4], the antitumour activity entry is listed as “exhibit antitumour activity”.
Still for that read-out and setting: the same measure for `CC(=O)[C@@]1(OC(=O)COC(=O)Oc2ccc(N(CCCl)CCCl)cc2)CC[C@H]2[C@@H]3CCC4=CC(=O)CC[C@]4(C)[C@H]3CC[C@@]21C` [5:4, 17α-[4-(N,N-bis(2-chloroethyl)amino)phenoxycarbonyloxyacetoxy]pregn-4-ene-3,20-dione]: “exhibit antitumour activity”; for `CC(=O)[C@@]1(OC(=O)C(C)OC(=O)CCCCc2ccc(N(CCCl)CCCl)cc2)CC[C@H]2[C@@H]3C=C(Cl)C4=CC(=O)CC[C@]4(C)[C@H]3CC[C@@]21C` (stereo partly drawn) [3:8, 6-chloro-17α-/2-(5-(4-(N,N-bis(2-chloroethyl)amino)phenyl)pentanoyloxy)propanoyloxy/pregna-4,6-diene-3,20-dione]: “exhibit antitumour activity”.
